Reference: paper PMC5916021 (Chemical Science, 2018)
Where two headings read alike, the source gives them in different places.

How the values were obtained:
[1] = biological target: CAMK1 (Homo sapiens, UniProt Q14012); assay: biochemical; details: read-out: inhibition of CAMK1
[2] = tested on: AKT1 serine 129 phosphorylation in HCT116 cells; details: 2 × GI50 (20 μM), 72 hours
[3] = biological target: EF2K (Homo sapiens, UniProt O00418); assay: biochemical; details: read-out: inhibition of EF2K
[4] = biological target: T1, CK2α (Homo sapiens, UniProt P68400); assay: biochemical; details: for inhibition at 10 µM: read-out: Inhibition @10 μM; for inhibition at 500 µM: read-out: Inhibition of the kinase activity @ 500 μM
[5] = biological target: SGK1 (Homo sapiens, UniProt O00141); assay: biochemical; details: read-out: inhibition of SGK1
[6] = biological target: T1, CK2α
[7] = tested on: HCT116 cells; details: from the functional (IC50) to the cellular assay (GI50)
[8] = biological target: T1, CK2α; details: for Enthalpy / Entropy: ITC; for LE (ligand efficiency): LE = ΔG/[number of heavy atoms]
[9] = tested on: panel of 140 kinases; details: 30 μM (4 × IC50)
[10] = biological target: T1, CK2α; remark: listed apart in the source
[11] = tested on: HCT116 cells; assay: cells; details: Homo sapiens, HCT-116, 72 h
[12] = physchem; details: kinase assay conditions
[13] = biological target: SmMLCK (Homo sapiens, UniProt Q15746); assay: biochemical; details: read-out: inhibition of SmMLCK
[14] = tested on: kinases; details: cited from earlier work; for number of kinases with > 70% inhibition: at 0.5 µM
[15] = tested on: CK2; details: read-out: IC50 against CK2; cited from earlier work

T1 sequence (P68400 2-329): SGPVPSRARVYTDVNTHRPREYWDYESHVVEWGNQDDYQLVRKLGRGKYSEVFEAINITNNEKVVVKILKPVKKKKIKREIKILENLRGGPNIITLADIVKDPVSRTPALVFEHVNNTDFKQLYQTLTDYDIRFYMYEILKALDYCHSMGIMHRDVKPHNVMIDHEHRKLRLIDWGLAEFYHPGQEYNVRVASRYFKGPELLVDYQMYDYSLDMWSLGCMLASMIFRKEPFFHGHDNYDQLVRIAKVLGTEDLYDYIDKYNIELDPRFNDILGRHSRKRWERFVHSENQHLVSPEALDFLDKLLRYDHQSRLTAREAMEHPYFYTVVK
SmMLCK, sequence (Q15746 923-1914): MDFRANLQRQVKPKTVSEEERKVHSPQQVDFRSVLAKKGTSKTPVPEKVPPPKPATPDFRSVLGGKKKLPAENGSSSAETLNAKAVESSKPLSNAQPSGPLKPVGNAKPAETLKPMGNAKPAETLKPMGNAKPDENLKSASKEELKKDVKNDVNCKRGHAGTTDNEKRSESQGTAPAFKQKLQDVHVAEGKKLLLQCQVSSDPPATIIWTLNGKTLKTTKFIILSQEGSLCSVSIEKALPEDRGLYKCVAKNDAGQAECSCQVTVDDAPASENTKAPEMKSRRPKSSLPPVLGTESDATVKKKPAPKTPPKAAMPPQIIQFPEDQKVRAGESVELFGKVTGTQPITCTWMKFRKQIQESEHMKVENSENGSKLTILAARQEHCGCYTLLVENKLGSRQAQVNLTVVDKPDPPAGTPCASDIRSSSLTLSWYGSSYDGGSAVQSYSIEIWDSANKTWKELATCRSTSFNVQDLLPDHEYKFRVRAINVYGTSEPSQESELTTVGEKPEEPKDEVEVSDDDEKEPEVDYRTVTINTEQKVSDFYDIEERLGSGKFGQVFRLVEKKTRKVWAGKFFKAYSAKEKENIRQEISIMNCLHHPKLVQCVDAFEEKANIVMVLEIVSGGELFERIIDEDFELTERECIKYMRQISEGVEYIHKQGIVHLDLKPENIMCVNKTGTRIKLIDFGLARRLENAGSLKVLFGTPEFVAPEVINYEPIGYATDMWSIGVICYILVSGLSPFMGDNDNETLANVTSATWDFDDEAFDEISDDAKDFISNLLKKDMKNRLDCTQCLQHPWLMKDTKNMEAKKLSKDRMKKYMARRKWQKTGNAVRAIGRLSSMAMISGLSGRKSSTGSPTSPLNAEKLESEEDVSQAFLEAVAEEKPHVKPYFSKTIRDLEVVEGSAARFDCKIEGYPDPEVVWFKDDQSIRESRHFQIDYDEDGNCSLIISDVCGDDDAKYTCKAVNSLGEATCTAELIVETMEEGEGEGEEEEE
EF2K, sequence (O00418 whole entry): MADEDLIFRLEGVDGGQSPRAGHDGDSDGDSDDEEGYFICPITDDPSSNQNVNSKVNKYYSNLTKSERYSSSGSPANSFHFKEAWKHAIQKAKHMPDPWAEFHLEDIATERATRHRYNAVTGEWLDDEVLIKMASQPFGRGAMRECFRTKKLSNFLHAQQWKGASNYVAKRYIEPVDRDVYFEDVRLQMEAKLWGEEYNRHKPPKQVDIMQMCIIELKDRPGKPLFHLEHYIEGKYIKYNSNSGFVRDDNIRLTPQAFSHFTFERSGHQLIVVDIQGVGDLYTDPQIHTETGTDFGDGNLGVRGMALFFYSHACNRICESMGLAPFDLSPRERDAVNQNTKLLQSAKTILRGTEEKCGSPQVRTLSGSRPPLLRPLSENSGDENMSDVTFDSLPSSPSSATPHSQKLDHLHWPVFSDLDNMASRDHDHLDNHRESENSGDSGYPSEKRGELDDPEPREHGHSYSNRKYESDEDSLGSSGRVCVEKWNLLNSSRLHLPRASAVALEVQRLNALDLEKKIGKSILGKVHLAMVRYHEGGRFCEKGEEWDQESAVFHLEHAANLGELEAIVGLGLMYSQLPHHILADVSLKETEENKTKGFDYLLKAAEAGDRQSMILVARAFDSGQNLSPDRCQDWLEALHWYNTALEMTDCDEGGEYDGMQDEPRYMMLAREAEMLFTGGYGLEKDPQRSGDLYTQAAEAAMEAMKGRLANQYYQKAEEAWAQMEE
CAMK1, sequence (Q14012 whole entry): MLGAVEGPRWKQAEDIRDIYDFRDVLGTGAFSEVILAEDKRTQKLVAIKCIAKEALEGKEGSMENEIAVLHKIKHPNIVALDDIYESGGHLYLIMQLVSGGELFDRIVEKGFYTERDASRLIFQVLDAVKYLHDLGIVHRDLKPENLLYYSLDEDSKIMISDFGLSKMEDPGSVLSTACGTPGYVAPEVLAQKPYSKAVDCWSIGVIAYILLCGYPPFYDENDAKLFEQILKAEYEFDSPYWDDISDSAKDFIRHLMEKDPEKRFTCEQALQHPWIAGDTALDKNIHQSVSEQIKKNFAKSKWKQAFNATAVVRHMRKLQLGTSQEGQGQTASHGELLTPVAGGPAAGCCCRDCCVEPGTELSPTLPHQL
SGK1, sequence (O00141 whole entry, species assumed): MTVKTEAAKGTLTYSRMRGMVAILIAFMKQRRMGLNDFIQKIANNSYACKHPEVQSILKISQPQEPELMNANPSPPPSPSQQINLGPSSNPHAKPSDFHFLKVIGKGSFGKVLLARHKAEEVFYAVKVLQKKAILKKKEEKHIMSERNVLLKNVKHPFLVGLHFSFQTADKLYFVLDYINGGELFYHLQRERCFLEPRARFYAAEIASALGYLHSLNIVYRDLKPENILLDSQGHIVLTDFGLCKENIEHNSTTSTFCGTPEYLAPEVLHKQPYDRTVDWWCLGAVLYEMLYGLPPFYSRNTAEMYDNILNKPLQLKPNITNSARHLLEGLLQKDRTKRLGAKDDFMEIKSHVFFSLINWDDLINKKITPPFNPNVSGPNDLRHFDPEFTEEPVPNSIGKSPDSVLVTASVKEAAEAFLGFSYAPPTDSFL

CCc1ccccc1-c1c(Cl)cc(CNCCc2nc3ccccc3[nH]2)cc1Cl [CAM4712]
inhibition at 30 µM [1]: > 50% | inhibition of the phosphorylation of Ser129 of Akt1 [2]: good inhibition | inhibition at 30 µM [3]: > 50% | solubility for ITC: not soluble enough for ITC | solubility in water: moderate solubility | inhibition at 10 µM [4]: 80% | inhibition at 30 µM [5]: > 50% | Inhibition of binding of compound 37 (Lys68 probe) to CK2α ([6]; 20 μM CAM4712): not inhibited | Enthalpy ([6]; CAM4712 in competition with 15): -3.42 kcal/mol | Enthalpy ([6]; CAM4712 in competition with CAM4066): -11.71 kcal/mol | Enthalpy ([6]; CAM4712 in competition with CX4945): -5.9 kcal/mol | Drop in potency [7]: No | Enthalpy [8]: -4.09 kcal/mol | Entropy [8]: 9.46 cal/mol/deg | number of kinases inhibited for more than 50% [9]: 4 | decrease in potency compared to CAM4066 [10]: 10 fold | GI50 [11]: 10 ± 3.6 µM | solubility [12]: ≤ 50 µM | inhibition at 30 µM [13]: > 50%

O=C(O)c1ccc2c(c1)nc(Nc1cccc(Cl)c1)c1ccncc12 [CX4945]
number of kinases with > 70% inhibition ([14]; ref 2 (H. Kim et al., PLoS One, 2014)): 26 | number of other kinases inhibited with nanomolar affinity [14]: 12 | GI50 [11]: 11.3 ± 1.2 µM | IC50 [15]: […]

O=C(O)c1ccc2c(c1)nc(Nc1cccc(C(F)(F)F)c1)c1nc(NC3CC3)ncc12 [CX5279]
number of kinases with > 70% inhibition ([14]; ref 5 (R. Battistutta et al., Biochemistry, 2011)): 4

Cc1ccccc1-c1ccc(CN)cc1Cl.Cl [Compound 2]
Enthalpy [8]: -5.054 kcal/mol | Entropy [8]: 3.11 cal/mol/deg | LE (ligand efficiency) [8]: 0.38

CC(C)c1ccccc1-c1ccc(CN)cc1Cl.Cl [Compound 4]
Enthalpy [8]: -1.846 kcal/mol | Entropy [8]: -23.2 cal/mol/deg | LE (ligand efficiency) [8]: 0.29

COc1ccccc1-c1ccc(CN)cc1Cl.Cl [Compound 5]
Enthalpy [8]: -1.184 kcal/mol | Entropy [8]: -23.2 cal/mol/deg | LE (ligand efficiency) [8]: 0.30

NCc1ccc(-c2ccccc2F)c(Cl)c1 [Compound 6]
Enthalpy [8]: -1.253 kcal/mol | Entropy [8]: -25.4 cal/mol/deg | LE (ligand efficiency) [8]: 0.32

Cl.NCc1ccc(-c2ccccc2O)c(Cl)c1 [Compound 7]
Enthalpy [8]: -5.671 kcal/mol | Entropy [8]: -3.34 cal/mol/deg | LE (ligand efficiency) [8]: 0.30

Cc1cc(F)ccc1-c1ccc(CN)cc1Cl.Cl [Compound 11]
Enthalpy [8]: -6.977 kcal/mol | Entropy [8]: -5.21 cal/mol/deg | LE (ligand efficiency) [8]: 0.33

Cl.NCc1ccc(-c2cccc3ccccc23)c(Cl)c1 [Compound 12]
Enthalpy [8]: -8.425 kcal/mol | Entropy [8]: -11 cal/mol/deg | LE (ligand efficiency) [8]: 0.27

Cl.NCc1cc(Cl)c(-c2ccccc2)c(Cl)c1 [Compound 14]
Enthalpy [8]: -3.333 kcal/mol | Entropy [8]: 9.78 cal/mol/deg | LE (ligand efficiency) [8]: 0.43

CCc1ccccc1-c1c(Cl)cc(CN)cc1Cl.O=C(O)C(F)(F)F [Compound 15]
Enthalpy [8]: -6.361 kcal/mol | Entropy [8]: 11.8 cal/mol/deg | LE (ligand efficiency) [8]: 0.41

Clc1cc(CNCc2ccccc2)ccc1-c1ccccc1 [Compound 16]
inhibition at 500 µM [4]: 54%

Clc1cc(CNCCc2ccccc2)ccc1-c1ccccc1 [Compound 17]
inhibition at 500 µM [4]: 42%

Clc1cc(CNCCCc2ccccc2)ccc1-c1ccccc1 [Compound 18]
inhibition at 500 µM [4]: 40%

Clc1cc(CNCc2ccc[nH]2)ccc1-c1ccccc1 [Compound 19]
inhibition at 500 µM [4]: 52%

Clc1cc(CNCCc2cnc[nH]2)ccc1-c1ccccc1 [Compound 20]
inhibition at 500 µM [4]: 50%

CCc1ccccc1-c1ccc(CNCCc2nc3ccccc3[nH]2)cc1Cl [Compound 23]
inhibition of the phosphorylation of Ser129 of Akt1 [2]: good inhibition | GI50 [11]: 10 µM | solubility [12]: ≤ 50 µM

CCc1ccccc1-c1ccc(CNCCc2nc3cccc(C)c3[nH]2)cc1Cl [Compound 24]
inhibition at 10 µM [4]: 45%

CCc1ccccc1-c1ccc(CNCCc2nc3cccc([N+](=O)[O-])c3[nH]2)cc1Cl [Compound 25]
inhibition at 10 µM [4]: 50%

CCc1ccccc1-c1ccc(CNCCc2nc3cccc(OC)c3[nH]2)cc1Cl.Cl [Compound 26]
inhibition of the phosphorylation of Ser129 of Akt1 [2]: good inhibition | inhibition at 10 µM [4]: 52% | GI50 [11]: 11 µM | solubility [12]: ≤ 50 µM

CCc1ccccc1-c1ccc(CNCCc2nc3ccc(C)cc3[nH]2)cc1Cl [Compound 27]
inhibition at 10 µM [4]: 38%

CCc1ccccc1-c1ccc(CNCCc2nc3ccc([N+](=O)[O-])cc3[nH]2)cc1Cl [Compound 28]
inhibition at 10 µM [4]: 36%

CCc1ccccc1-c1ccc(CNCCc2nc3ccc(OC)cc3[nH]2)cc1Cl.Cl [Compound 29]
inhibition at 10 µM [4]: 64% | GI50 [11]: 11 µM | solubility [12]: ≤ 50 µM

CCc1ccccc1-c1ccc(CNCCc2nc3ccc(Cl)cc3[nH]2)cc1Cl [Compound 30]
inhibition at 10 µM [4]: 50%

CCc1ccccc1-c1ccc(CNCCc2nc3ccccc3[nH]2)cc1C [Compound 31]
inhibition at 10 µM [4]: 30%

CCc1ccccc1-c1ccc(CNCCc2nc3ccccc3[nH]2)cc1C(F)(F)F [Compound 32]
inhibition at 10 µM [4]: 23%

CCc1ccccc1-c1ccc(CNCCc2nc3ccccc3[nH]2)cc1OC [Compound 33]
inhibition at 10 µM [4]: 41%

CCc1ccccc1-c1ccc(CNCCc2nc3ccccc3[nH]2)cc1OC(F)(F)F [Compound 34]
inhibition at 10 µM [4]: 39%

CCc1ccccc1-c1c(Cl)cc(CNCCc2nc3cccc(OC)c3[nH]2)cc1Cl [Compound 35]
inhibition at 10 µM [4]: 47%

CCc1ccccc1-c1c(Cl)cc(CNCCc2nc3ccc(OC)cc3[nH]2)cc1Cl [Compound 36]
inhibition at 10 µM [4]: 46%
